Experimental data reported in patent US20250186437A1, “CARBOLINE COMPOUNDS AND USE THEREOF” (PTC Therapeutics, Inc., priority 2021, published 2025).
pIC50: −log10 of the molar value.

system: MOLM-13 cells; assay: MOLM-13 Cell Proliferation Assay (indicator of DHODH inhibition); format: cell-based; conditions: Homo sapiens, 72 Hours of culture, CellTiter-Glo, no uridine
Summary of the method: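 Low-passage MOLM-13 cells (10^4/well) in RPMI 1640 + 10% FBS exposed to compound (0.5% DMSO final) for 72 h at 37 °C, 5% CO2. Viability read by CellTiter-Glo luminescence; growth reflects de novo pyrimidine synthesis dependent on DHODH.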

| SMILES | pIC50 |
| --- | --- |
| Fc1cc2[nH]c3c(c2cc1Cl)CCN(c1ncccn1)C3c1ccc(C2CC2)cc1 (centres unmarked) [Compound 45, 6-chloro-1-(4-cyclopropylphenyl)-7-fluoro-2-(pyrimidin-2-yl)-2,3,4,9-tetrahydro-1H-pyrido[3,4-b]indole] | 7.49 |
| CCCCOC(=O)c1ccnc(N2CCc3c([nH]c4ccc(Cl)cc34)C2c2ccc(C)cc2)n1 (centres unmarked) [Compound 280, butyl 2-[6-chloro-1-(4-methylphenyl)-1,3,4,9-tetrahydro-2H-pyrido[3,4-b]indol-2-yl]pyrimidine-4-carboxylate] | 8.39 |
| Cc1cc(C)nc(N2CCc3c([nH]c4cc(F)c(Cl)cc34)C2c2ccc(/C=C/CCO)cc2)n1 (centres unmarked) [Compound 244, (3E)-4-{4-[6-chloro-2-(4,6-dimethylpyrimidin-2-yl)-7-fluoro-2,3,4,9-tetrahydro-1H-pyrido[3,4-b]indol-1-yl]phenyl}but-3-en-1-ol] | 8.55 |
| Cc1ccc(C2c3[nH]c4ccc(Cl)c(F)c4c3CCN2c2ncc(F)c(C)n2)cc1 (centres unmarked) [Compound 109, 6-chloro-5-fluoro-2-(5-fluoro-4-methylpyrimidin-2-yl)-1-(4-methylphenyl)-2,3,4,9-tetrahydro-1H-pyrido[3,4-b]indole] | 8.25 |
| N#Cc1ccc(C2c3[nH]c4cc(F)c(Cl)cc4c3CCN2c2nccc(Cl)n2)cc1 (centres unmarked) [Compound 18, 4-[6-chloro-2-(4-chloropyrimidin-2-yl)-7-fluoro-2,3,4,9-tetrahydro-1H-pyrido[3,4-b]indol-1-yl]benzonitrile] | 7.87 |
| CN(C)c1ccc(C2c3[nH]c4ccc(Cl)c(F)c4c3CCN2c2nccc(C(F)(F)F)n2)cn1 (centres unmarked) [Compound 177, 5-{6-chloro-5-fluoro-2-[4-(trifluoromethyl)pyrimidin-2-yl]-2,3,4,9-tetrahydro-1H-pyrido[3,4-b]indol-1-yl}-N,N-dimethylpyridin-2-amine] | 8.41 |
| Cc1ccc([C@H]2c3[nH]c4ccc(Br)cc4c3CCN2c2nc(C(F)(F)F)cc(C(F)(F)F)n2)c(F)c1F [Compound 518, (1S)-2-[4,6-bis(trifluoromethyl)pyrimidin-2-yl]-6-bromo-1-(2,3-difluoro-4-methylphenyl)-2,3,4,9-tetrahydro-1H-pyrido[3,4-b]indole] | 9.10 |
| FC(F)(F)c1ccnc(N2CCc3c([nH]c4ccc(Cl)cc34)C2c2cnc(N3C4CCC3COC4)nc2)n1 (centres unmarked) [Compound 337, 6-chloro-1-[2-(3-oxa-8-azabicyclo[3.2.1]octan-8-yl)pyrimidin-5-yl]-2-[4-(trifluoromethyl)pyrimidin-2-yl]-2,3,4,9-tetrahydro-1H-pyrido[3,4-b]indole] | 8.09 |
| Cc1cc(C(F)(F)F)nc(N2CCc3c([nH]c4cc(F)c(Cl)cc34)C2c2ccc(C)c(F)c2F)n1 (centres unmarked) [Compound 148, 6-chloro-1-(2,3-difluoro-4-methylphenyl)-7-fluoro-2-[4-methyl-6-(trifluoromethyl)pyrimidin-2-yl]-2,3,4,9-tetrahydro-1H-pyrido[3,4-b]indole] | 9.05 |
| Cc1ccnc(N2CCc3c([nH]c4ccc(Cl)cc34)[C@H]2c2ccc(C)c(F)c2F)n1 [Compound 185, (1R)-6-chloro-1-(2,3-difluoro-4-methylphenyl)-2-(4-methylpyrimidin-2-yl)-2,3,4,9-tetrahydro-1H-pyrido[3,4-b]indole] | 7.79 |
| Cc1ccc(C2c3[nH]c4ccc(Cl)c(F)c4c3CCN2c2nc(C#N)cc(C#N)n2)cc1 (centres unmarked) [Compound 228, 2-[6-chloro-5-fluoro-1-(4-methylphenyl)-1,3,4,9-tetrahydro-2H-pyrido[3,4-b]indol-2-yl]pyrimidine-4,6-dicarbonitrile] | 8.36 |
| Cc1ccc([C@H]2c3[nH]c4ccc([N+](=O)[O-])cc4c3CCN2c2nc(C(F)(F)F)nc(C(F)(F)F)n2)c(F)c1F [Compound 527, (1S)-2-[4,6-bis(trifluoromethyl)-1,3,5-triazin-2-yl]-1-(2,3-difluoro-4-methylphenyl)-6-nitro-2,3,4,9-tetrahydro-1H-pyrido[3,4-b]indole] | 9.22 |
| Cc1ccnc(N2CCc3c([nH]c4cc(F)c(Cl)cc34)C2c2ccc(C(F)(F)F)cc2)n1 (centres unmarked) [Compound 81, 6-chloro-7-fluoro-2-(4-methylpyrimidin-2-yl)-1-[4-(trifluoromethyl)phenyl]-2,3,4,9-tetrahydro-1H-pyrido[3,4-b]indole] | 7.40 |
| Cc1nc(C)nc(N2CCc3c([nH]c4ccc(Cl)c([N+](=O)[O-])c34)C2c2cnc(N3CCOCC3)nc2)n1 (centres unmarked) [Compound 325, 4-[5-[6-chloro-2-(4,6-dimethyl-1,3,5-triazin-2-yl)-5-nitro-1,3,4,9-tetrahydropyrido[3,4-b]indol-1-yl]pyrimidin-2-yl]morpholine] | 6.78 |
| Cc1ccc(C2c3[nH]c4ccc(Cl)c(F)c4c3CCN2c2ncc(F)cn2)cc1 (centres unmarked) [Compound 20, 6-chloro-5-fluoro-2-(5-fluoropyrimidin-2-yl)-1-(4-methylphenyl)-2,3,4,9-tetrahydro-1H-pyrido[3,4-b]indole] | 7.89 |
| Fc1c(Cl)ccc2[nH]c3c(c12)CCN(c1nccc(C(F)(F)F)n1)C3c1cncnc1 (centres unmarked) [Compound 191, 6-chloro-5-fluoro-1-(pyrimidin-5-yl)-2-[4-(trifluoromethyl)pyrimidin-2-yl]-2,3,4,9-tetrahydro-1H-pyrido[3,4-b]indole] | 7.68 |

Other lines, results leading:

| pIC50 | SMILES |
| --- | --- |
| 8.70 | FC(F)(F)c1ccnc(N2CCc3c([nH]c4ccc(Cl)cc34)C2c2cnc(N3CCOCC3)nc2)n1 (centres unmarked) [Compound 251, 6-chloro-1-[2-(morpholin-4-yl)pyrimidin-5-yl]-2-[4-(trifluoromethyl)pyrimidin-2-yl]-2,3,4,9-tetrahydro-1H-pyrido[3,4-b]indole] |
| 8.68 | Cc1ccnc(N2CCc3c([nH]c4c(N)cc(Cl)cc34)C2c2ccc(N3CCOCC3)nc2)n1 (centres unmarked) [Compound 351, 6-chloro-2-(4-methylpyrimidin-2-yl)-1-[6-(morpholin-4-yl)pyridin-3-yl]-2,3,4,9-tetrahydro-1H-pyrido[3,4-b]indol-8-amine] |
| 9.15 | COc1ncc([C@H]2c3[nH]c4ccc(Cl)cc4c3CCN2c2nc(C(F)(F)F)nc(C(F)(F)F)n2)cn1 [Compound 522, (1S)-2-[4,6-bis(trifluoromethyl)-1,3,5-triazin-2-yl]-6-chloro-1-(2-methoxypyrimidin-5-yl)-2,3,4,9-tetrahydro-1H-pyrido[3,4-b]indole] |
| 7.36 | Cc1nc(C)nc(N2CCc3c([nH]c4ccc(Cl)cc34)C2c2cnc(N3CCC3)nc2)n1 (centres unmarked) [Compound 345, 1-[2-(azetidin-1-yl)pyrimidin-5-yl]-6-chloro-2-(4,6-dimethyl-1,3,5-triazin-2-yl)-2,3,4,9-tetrahydro-1H-pyrido[3,4-b]indole] |
| 8.24 | CN1CCN(c2ncc([C@H]3c4[nH]c5ccc(-n6nccn6)cc5c4CCN3c3ncnc(C(F)(F)F)n3)cn2)CC1 [Compound 506, (1S)-1-[2-(4-methylpiperazin-1-yl)pyrimidin-5-yl]-6-(2H-1,2,3-triazol-2-yl)-2-[4-(trifluoromethyl)-1,3,5-triazin-2-yl]-2,3,4,9-tetrahydro-1H-pyrido[3,4-b]indole] |
| 8.59 | CN1CCN(c2ncc([C@H]3c4[nH]c5ccc(Cl)cc5c4CCN3c3nccc(C(F)(F)F)n3)cn2)CC1 [Compound 484, (1S)-6-chloro-1-[2-(4-methylpiperazin-1-yl)pyrimidin-5-yl]-2-[4-(trifluoromethyl)pyrimidin-2-yl]-2,3,4,9-tetrahydro-1H-pyrido[3,4-b]indole] |
| 8.68 | Fc1c(Cl)ccc2[nH]c3c(c12)CCN(c1nccc(C(F)(F)F)n1)C3c1cnc(N2CCOCC2)nc1 (centres unmarked) [Compound 200, 6-chloro-5-fluoro-1-[2-(morpholin-4-yl)pyrimidin-5-yl]-2-[4-(trifluoromethyl)pyrimidin-2-yl]-2,3,4,9-tetrahydro-1H-pyrido[3,4-b]indole] |
| 8.37 | Cc1ccc(C2c3[nH]c4cc(F)c(Cl)cc4c3CCN2c2ncc(C(F)(F)F)cn2)c(F)c1F (centres unmarked) [Compound 142, 6-chloro-1-(2,3-difluoro-4-methylphenyl)-7-fluoro-2-[5-(trifluoromethyl)pyrimidin-2-yl]-2,3,4,9-tetrahydro-1H-pyrido[3,4-b]indole] |
| 9.22 | FC(F)c1nc(N2CCc3c([nH]c4ccc(Cl)cc34)[C@@H]2c2cnc(N3CCOCC3)nc2)nc(C(F)(F)F)n1 [Compound 507, (1S)-6-chloro-2-[4-(difluoromethyl)-6-(trifluoromethyl)-1,3,5-triazin-2-yl]-1-[2-(morpholin-4-yl)pyrimidin-5-yl]-2,3,4,9-tetrahydro-1H-pyrido[3,4-b]indole] |
| 8.34 | FC(F)(F)c1ccnc(N2CCc3c([nH]c4ccc(Cl)cc34)C2c2ccc(N3C[C@H]4C[C@@H]3CO4)nc2)n1 (stereo partly drawn) [Compound 373, 6-chloro-1-{6-[(1R,4R)-2-oxa-5-azabicyclo[2.2.1]heptan-5-yl]pyridin-3-yl}-2-[4-(trifluoromethyl)pyrimidin-2-yl]-2,3,4,9-tetrahydro-1H-pyrido[3,4-b]indole] |
| 10.00 | Cc1ccc([C@H]2c3[nH]c4ccc(Cl)cc4c3CCN2c2nc(C(F)F)nc(C(F)(F)F)n2)c(F)c1F [Compound 510, (1S)-6-chloro-1-(2,3-difluoro-4-methylphenyl)-2-[4-(difluoromethyl)-6-(trifluoromethyl)-1,3,5-triazin-2-yl]-2,3,4,9-tetrahydro-1H-pyrido[3,4-b]indole] |
| 8.60 | FC(F)(F)c1ccnc(N2CCc3c([nH]c4ccc(Cl)cc34)C2c2ccc(N3CCOCC3)nc2)n1 (centres unmarked) [Compound 303, 6-chloro-1-[6-(morpholin-4-yl)pyridin-3-yl]-2-[4-(trifluoromethyl)pyrimidin-2-yl]-2,3,4,9-tetrahydro-1H-pyrido[3,4-b]indole] |
| 8.24 | CN(C)c1nc(N2CCc3c([nH]c4ccc(Cl)cc34)[C@@H]2c2cnc(N3CCOCC3)nc2)nc(C(F)(F)F)n1 [Compound 444, 4-{(1S)-6-chloro-1-[2-(morpholin-4-yl)pyrimidin-5-yl]-1,3,4,9-tetrahydro-2H-pyrido[3,4-b]indol-2-yl}-N,N-dimethyl-6-(trifluoromethyl)-1,3,5-triazin-2-amine] |
